Experimental data taken from US20250339569A1, “CARBONIC ANHYDRASE IX LIGANDS” (priority 2021, published 2025).
Like-named read-outs stand apart in the source and are kept apart here. Blank lines part the entries; values can stand above or below the compound they belong to. Starred links: 1 amine or outer side, 2 acyl side, 3 side chain; linkers in the order of their positions; H or OH if unused. Positions of bridges follow the written chain, without caps; N, C: chain ends. Non-standard residues stand in square brackets, D forms with d. Residues, ends and D or L forms follow the SMILES beside them. *: point of attachment. Phe(3-NHCO(CH2)3SO2NH2) = N[C@@H](Cc1cccc(NC(=O)CCCS(N)(=O)=O)c1)C(=O)O; X3 = O=C(O)CN1CCN(CC(=O)O)CCN(CC(=O)NCCCOCCOCCOCCCN*)CCN(CC(=O)O)CC1; DOTA = O=C(O)CN1CCN(CC(=O)O)CCN(CC(=O)*)CCN(CC(=O)O)CC1; Phe(3,4-Cl2) = N[C@@H](Cc1ccc(Cl)c(Cl)c1)C(=O)O; Phe(4-NH2) = Nc1ccc(C[C@H](N)C(=O)O)cc1; mXylylene = c1cc(C[*:1])cc(C[*:2])c1; X46 = NS(=O)(=O)c1c[nH]c(C(=O)*)c1; X2 = O=C(CN1CCC(N[*:1])CC1)[*:2]; X52 = NS(=O)(=O)c1cnn(CC(=O)*)c1; X65 = NS(=O)(=O)c1ccc(C(=O)*)cn1; tBuAla = CC(C)(C)C[C@H](N)C(=O)O; X1 = O=C(CN1CCN([*:1])CC1)[*:2]; Suc = O=C(CCC(=O)[*:2])[*:1]; X71 = O=C1NC(=O)C(CC(=O)*)N1; Dap = NC[C@H](N)C(=O)O; Sar = CNCC(=O)O

What was measured:
[1] = target: T1, CAIX-expressing human HT-29 colorectal cancer cells (Homo sapiens, UniProt Q16790); assay: FACS binding assay (IC50 determination, competition with tracer 3BP-2776 or 3BP-4149); details: 4° C., 1 hour, read-out: pIC50 category (activity) (converted)
T1 construct: CAIX-expressing human HT-29 colorectal cancer cells; host or cells: HT-29 human colorectal cancer cells
Method in brief: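 HT-29 cells in FACS buffer (PBS, 1% FCS) at 500.000 cells/ml were exposed to compounds competing with a labelled tracer, with biotinylated compounds detected by 1 μg/mL APC-streptavidin for 30 min on ice. APC/Cy5 median fluorescence was read by flow cytometry and IC50 derived by 4PL fit.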

[2] = target: T2, human carbonic anhydrase IX (hCAIX-Fc) (Homo sapiens, UniProt Q16790); assay: Surface plasmon resonance assay with hCAIX-Fc; format: binding; details: 25° C.; for t1/2 category (activity): SPR dissociation half-life, hCAIX-Fc; for Kd: SPR, hCAIX-Fc captured, read-out: pKD category (activity) (converted)
T2 construct: purchased SinoBliological (Sino Biological) 10107-H02H
Protocol: Surface plasmon resonance (SPR) studies were performed using a Biacore™ T200 SPR system (GE Healthcare Life Sciences). Briefly, polarized light is directed towards a gold-labeled sensor surface, and minimum intensity reflected light is detected. The angle of reflected light changes as molecules bind and dissociate.
Fc-fusion protein of human carbonic anhydrase IX (hCAIX-Fc, SinoBliological, Cat #10107-H02H) was captured on a Fc-capture chip (Biacore™ CM5 sensor chip coated with ˜300 RU of an Fc-binding peptide). Recombinant carbonic anydrase was diluted in Running Buffer (PBST, 0.1% DMSO) to a final concentration 100 or 200 nM and than flushed over the Fc-capture chip to immobilized ˜1000 RUs.
Stock solutions of test compounds were prepared by dissolving each compound in DMSO. DMSO stock solution were diluted 1:1000 in Running Buffer without DMSO. Further sequencial dilutions were made with Running Buffer containing 0.1% DMSO. SPR binding analyses were performed in Single Cycle Kinetic (SCK) mode at 25° C. Flow cell coated with the Fc-binding peptide only served as reference flowcell. After each SCK run, carbonic andydrase IX was removed with 10 mM glycine buffer, pH 1.5.
In between every three SCK measurements, a blank run with Running Buffer instead of test compound was included to correct for baseline drifts (double blanking methods).
Table 11 describes the protocol steps for Fc-fusion target capturing and assessment of the binding kinetics.
For each test compound, SPR raw data in the form of resonance units (RU) were plotted as sensorgrams using the Biacore™ T200 control software. The signal from the blank sensorgram was subtracted from that of the test compound sensorgram (blank corrected). The blank corrected sensorgram was corrected for baseline drift by subtracting the sensorgram of a SCK run without the test compound (running buffer only). The association rate (kon), dissociation rate (koff), dissociation constant (KD), and t1/2 were calculated from Blank-normalized SPR data using the 1:1 Langmuir binding model from the Biacore™ T200 evaluation software. Raw data and fit results were imported as text files in IDBS. The pKD value (negative decadic logarithm of dissociation constant) was calculated in the IDBS excel template.

[3] = FACS binding assay, HT-29 cells, competition with tracer 3BP-2776 (10 nM, biotin-labeled)
[4] = FACS binding assay, HT-29 cells, competition with tracer 3BP-4149 (3 nM, Cy5-labeled)

- IC50 ([1]; FACS competition on HT-29 cells, Tracer ID 3BP-2776 (10 nM, biotin-labeled)): < 10 nM
- t1/2 category (activity) [2]: C (t1/2 between 2.1 and 5.0 minutes)
- Kd [2]: < 10 nM
SMILES: CC(C)C[C@@H]1NC(=O)[C@H](Cc2c[nH]c3ccccc23)NC(=O)[C@H](CC(=O)O)NC(=O)CN(C)C(=O)[C@H](CCC(=O)O)NC(=O)[C@@H](NC(=O)[C@H](Cc2ccc(O)cc2)NC(=O)[C@@H](NC(=O)CCC(=O)NCCCOCCOCCOCCCNC(=O)CN2CCN(CC(=O)O)CCN(CC(=O)O)CCN(CC(=O)O)CC2)C(C)C)CSCc2cccc(c2)CSC[C@@H](C(N)=O)NC(=O)[C@H](CCC(N)=O)NC(=O)[C@H](Cc2c[nH]c3ccccc23)NC(=O)[C@H]([C@@H](C)O)NC1=O [3BP-3271] ({X3-Suc}-VYCE[Sar]DWLTWQC-NH2; linker 3-12 via mXylylene)

- Kd [2]: < 10 nM
SMILES: CC(C)C[C@@H]1NC(=O)[C@H](Cc2c[nH]c3ccccc23)NC(=O)[C@H](CC(=O)O)NC(=O)CNC(=O)[C@H](CCC(=O)O)NC(=O)[C@@H](NC(=O)[C@H](Cc2ccc(O)cc2)NC(=O)[C@@H](NC(=O)CCC(=O)NCCCOCCOCCOCCCNC(=O)CN2CCN(CC(=O)O)CCN(CC(=O)O)CCN(CC(=O)O)CC2)C(C)C)CSCc2cccc(c2)CSC[C@@H](C(N)=O)NC(=O)[C@H](CCC(N)=O)NC(=O)[C@H](Cc2c[nH]c3ccccc23)NC(=O)[C@H]([C@@H](C)O)NC1=O [3BP-3328] ({X3-Suc}-VYCEGDWLTWQC-NH2; linker 3-12 via mXylylene)

- t1/2 category (activity) [2]: B (t1/2 between 5.1 and 15.0 minutes)
- Kd [2]: < 10 nM
SMILES: CC(C)C[C@@H]1NC(=O)[C@H](Cc2ccc(Cl)c(Cl)c2)NC(=O)[C@H](CC(=O)O)NC(=O)[C@H]2CCCN2C(=O)[C@H](CCC(=O)O)NC(=O)[C@@H]2CSCc3cccc(c3)CSC[C@@H](C(N)=O)NC(=O)[C@H](CNC(=O)C[C@H](NC(=O)[C@@H](NC(=O)CN3CCC(NC(=O)CN4CCN(CC(=O)O)CCN(CC(=O)O)CCN(CC(=O)O)CC4)CC3)C(C)C)C(=O)N2)NC(=O)[C@H](Cc2c[nH]c3ccccc23)NC(=O)[C@H]([C@@H](C)O)NC1=O [3BP-4439] ({DOTA}-[X2]VDCE[dP]D[Phe(3,4-Cl2)]LTW[Dap]C-NH2; lactam 3-12; linker 4-13 via mXylylene)

- IC50 [1, 3]: < 10 nM
SMILES: C[C@@H](O)[C@@H]1NC(=O)[C@H](CC(C)(C)C)NC(=O)[C@H](Cc2cccc(NC(=O)CCCS(N)(=O)=O)c2)NC(=O)[C@H](CC(=O)O)NC(=O)[C@H]2CCCN2C(=O)[C@H](CCC(=O)O)NC(=O)[C@@H](NC(=O)[C@H](Cc2ccc(O)cc2)NC(=O)CN2CCN(C(=O)CN3CCN(CC(=O)O)CCN(CC(=O)O)CCN(CC(=O)O)CC3)CC2)CSCc2cccc(c2)CSC[C@@H](C(N)=O)NC(=O)[C@H](CO)NC(=O)[C@H](Cc2c[nH]c3ccccc23)NC1=O [3BP-4449] ({DOTA}-[X1]YCE[dP]D[Phe(3-NHCO(CH2)3SO2NH2)][tBuAla]TWSC-NH2; linker 3-12 via mXylylene)

- IC50 [1, 3]: < 10 nM
SMILES: CC(C)C[C@@H]1NC(=O)[C@H](Cc2cccc(NC(=O)CCCS(N)(=O)=O)c2)NC(=O)[C@H](CC(=O)O)NC(=O)[C@H]2CCCN2C(=O)[C@H](CCC(=O)O)NC(=O)[C@@H](NC(=O)[C@H](CO)NC(=O)CN2CCN(C(=O)CN3CCN(CC(=O)O)CCN(CC(=O)O)CCN(CC(=O)O)CC3)CC2)CSCc2cccc(c2)CSC[C@@H](C(N)=O)NC(=O)[C@H](CO)NC(=O)[C@H](Cc2c[nH]c3ccccc23)NC(=O)[C@H]([C@@H](C)O)NC1=O [3BP-4450] ({DOTA}-[X1]SCE[dP]D[Phe(3-NHCO(CH2)3SO2NH2)]LTWSC-NH2; linker 3-12 via mXylylene)

- IC50 [1, 3]: < 10 nM
SMILES: CC(C)C[C@@H]1NC(=O)[C@H](Cc2cccc(NC(=O)CCCS(N)(=O)=O)c2)NC(=O)[C@H](CC(=O)O)NC(=O)[C@H]2CCCN2C(=O)[C@H](CCC(=O)O)NC(=O)[C@@H](NC(=O)[C@H](CCCNC(=N)N)NC(=O)CN2CCN(C(=O)CN3CCN(CC(=O)O)CCN(CC(=O)O)CCN(CC(=O)O)CC3)CC2)CSCc2cccc(c2)CSC[C@@H](C(N)=O)NC(=O)[C@H](CO)NC(=O)[C@H](Cc2c[nH]c3ccccc23)NC(=O)[C@H]([C@@H](C)O)NC1=O [3BP-4451] ({DOTA}-[X1]RCE[dP]D[Phe(3-NHCO(CH2)3SO2NH2)]LTWSC-NH2; linker 3-12 via mXylylene)

- IC50 [1, 4]: 10 to 79.4 nM
SMILES: CC(C)C[C@@H]1NC(=O)[C@H](Cc2ccc(NC(=O)CC3NC(=O)NC3=O)cc2)NC(=O)[C@H](CC(=O)O)NC(=O)[C@H]2CCCN2C(=O)[C@H](CCC(=O)O)NC(=O)[C@@H](NC(=O)[C@H](Cc2ccc(O)cc2)NC(=O)[C@@H](NC(=O)CN2CCC(NC(=O)CN3CCN(CC(=O)O)CCN(CC(=O)O)CCN(CC(=O)O)CC3)CC2)C(C)C)CSCc2cccc(c2)CSC[C@@H](C(N)=O)NC(=O)[C@H](CO)NC(=O)[C@H](Cc2c[nH]c3ccccc23)NC(=O)[C@H]([C@@H](C)O)NC1=O (stereo partly drawn) [3BP-4458] ({DOTA}-[X2]VYCE[dP]D[Phe(4-NH2)](X71)LTWSC-NH2; linker 4-13 via mXylylene)

- IC50 [1, 4]: 100 to 794 nM
SMILES: CC(C)C[C@@H]1NC(=O)[C@H](Cc2ccc(NC(=O)c3ccc(S(N)(=O)=O)nc3)cc2)NC(=O)[C@H](CC(=O)O)NC(=O)[C@H]2CCCN2C(=O)[C@H](CCC(=O)O)NC(=O)[C@@H](NC(=O)[C@H](CCC(N)=O)NC(=O)CN2CCN(C(=O)CN3CCN(CC(=O)O)CCN(CC(=O)O)CCN(CC(=O)O)CC3)CC2)CSCc2cccc(c2)CSC[C@@H](C(N)=O)NC(=O)[C@H](CO)NC(=O)[C@H](Cc2c[nH]c3ccccc23)NC(=O)[C@H]([C@@H](C)O)NC1=O [3BP-4481] ({DOTA}-[X1]QCE[dP]D[Phe(4-NH2)](X65)LTWSC-NH2; linker 3-12 via mXylylene)

- IC50 [1, 4]: 100 to 794 nM
SMILES: CC(C)C[C@@H]1NC(=O)[C@H](Cc2ccc(NC(=O)Cn3cc(S(N)(=O)=O)cn3)cc2)NC(=O)[C@H](CC(=O)O)NC(=O)[C@H]2CCCN2C(=O)[C@H](CCC(=O)O)NC(=O)[C@@H](NC(=O)[C@H](CCC(N)=O)NC(=O)CN2CCN(C(=O)CN3CCN(CC(=O)O)CCN(CC(=O)O)CCN(CC(=O)O)CC3)CC2)CSCc2cccc(c2)CSC[C@@H](C(N)=O)NC(=O)[C@H](CO)NC(=O)[C@H](Cc2c[nH]c3ccccc23)NC(=O)[C@H]([C@@H](C)O)NC1=O [3BP-4482] ({DOTA}-[X1]QCE[dP]D[Phe(4-NH2)](X52)LTWSC-NH2; linker 3-12 via mXylylene)

- IC50 [1, 3]: 100 to 794 nM
SMILES: CC(C)C[C@@H]1NC(=O)[C@H](Cc2cccc(NC(=O)C3CCC(S(N)(=O)=O)CC3)c2)NC(=O)[C@H](CC(=O)O)NC(=O)[C@H]2CCCN2C(=O)[C@H](CCC(=O)O)NC(=O)[C@@H](NC(=O)[C@H](CCC(N)=O)NC(=O)CN2CCN(C(=O)CN3CCN(CC(=O)O)CCN(CC(=O)O)CCN(CC(=O)O)CC3)CC2)CSCc2cccc(c2)CSC[C@@H](C(N)=O)NC(=O)[C@H](CO)NC(=O)[C@H](Cc2c[nH]c3ccccc23)NC(=O)[C@H]([C@@H](C)O)NC1=O (stereo partly drawn) [3BP-4787]

- IC50 [1, 3]: 100 to 794 nM
SMILES: CC(C)C[C@@H]1NC(=O)[C@H](Cc2ccc(NC(=O)c3cc(S(N)(=O)=O)c[nH]3)cc2)NC(=O)[C@H](CC(=O)O)NC(=O)[C@H]2CCCN2C(=O)[C@H](CCC(=O)O)NC(=O)[C@@H](NC(=O)[C@H](CCC(N)=O)NC(=O)CN2CCN(C(=O)CN3CCN(CC(=O)O)CCN(CC(=O)O)CCN(CC(=O)O)CC3)CC2)CSCc2cccc(c2)CSC[C@@H](C(N)=O)NC(=O)[C@H](CO)NC(=O)[C@H](Cc2c[nH]c3ccccc23)NC(=O)[C@H]([C@@H](C)O)NC1=O [3BP-4814] ({DOTA}-[X1]QCE[dP]D[Phe(4-NH2)](X46)LTWSC-NH2; linker 3-12 via mXylylene)

- IC50 [1, 3]: 100 to 794 nM
SMILES: CC(C)C[C@@H]1NC(=O)[C@H](Cc2cccc(NC(=O)Cn3cc(C(=O)NO)nn3)c2)NC(=O)[C@H](CC(=O)O)NC(=O)[C@H]2CCCN2C(=O)[C@H](CCC(=O)O)NC(=O)[C@@H](NC(=O)[C@H](CCC(N)=O)NC(=O)CN2CCN(C(=O)CN3CCN(CC(=O)O)CCN(CC(=O)O)CCN(CC(=O)O)CC3)CC2)CSCc2cccc(c2)CSC[C@@H](C(N)=O)NC(=O)[C@H](CO)NC(=O)[C@H](Cc2c[nH]c3ccccc23)NC(=O)[C@H]([C@@H](C)O)NC1=O [3BP-4847]
